The target of the assay is cruzain (Trypanosoma cruzi, UniProt P25779). In words: fluorimetric Z-FR-AMC cleavage, initial rates. Type of assay: biochemical.

The results in this text go back to publication doi:10.1101/2021.12.22.473926v1 (biorxiv, 2021).

cruzain, sequence (P25779 123-337): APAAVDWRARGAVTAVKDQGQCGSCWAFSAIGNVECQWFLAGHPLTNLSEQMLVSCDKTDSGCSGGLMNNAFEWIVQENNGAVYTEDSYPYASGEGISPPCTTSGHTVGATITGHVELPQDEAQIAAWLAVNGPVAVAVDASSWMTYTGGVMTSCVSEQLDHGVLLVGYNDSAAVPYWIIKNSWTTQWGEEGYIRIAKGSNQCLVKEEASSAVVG

As for `CC(C)C[C@H](NC(=O)[C@H]1O[C@@H]1C(=O)O)C(=O)NCCCCN=C(N)N` [E-64, trans-Epoxysuccinyl-L-leucylamido(4-guanidino)butane, reference compound], the half-maximal inhibitory concentration (IC50) – broadly, the concentration at which inhibition is half-maximal – turned out to be 29.7 ± 9.16 nM.
